From patent US20220177446A1, “ALKYNE COMPOUNDS AS IRAK INHIBITORS, PREPARATION METHODS AND MEDICINAL USES THEREOF” (Eternity Bioscience Inc., priority 2020, published 2022)
Where two headings read alike, the source gives them in different places.

How the values were obtained:
[1] = biological target: T1, full length human IRAK4 protein (Homo sapiens, UniProt Q9NWZ3); assay: IRAK4 Biochemical Assay (Promega ADP-Glo IRAK4 Kinase Enzyme System); settings: 3 nM enzyme, 250 μM ATP; for IC50: 2 μM MBP, 60 min at room temperature; for IRAK4 Biochemical Assay Max Inhibition (%): maximum inhibition
T1 construct: Purified full length human IRAK4 protein; purchased Signal Chem I12-10G-125
T1 sequence (Q9NWZ3 1-460): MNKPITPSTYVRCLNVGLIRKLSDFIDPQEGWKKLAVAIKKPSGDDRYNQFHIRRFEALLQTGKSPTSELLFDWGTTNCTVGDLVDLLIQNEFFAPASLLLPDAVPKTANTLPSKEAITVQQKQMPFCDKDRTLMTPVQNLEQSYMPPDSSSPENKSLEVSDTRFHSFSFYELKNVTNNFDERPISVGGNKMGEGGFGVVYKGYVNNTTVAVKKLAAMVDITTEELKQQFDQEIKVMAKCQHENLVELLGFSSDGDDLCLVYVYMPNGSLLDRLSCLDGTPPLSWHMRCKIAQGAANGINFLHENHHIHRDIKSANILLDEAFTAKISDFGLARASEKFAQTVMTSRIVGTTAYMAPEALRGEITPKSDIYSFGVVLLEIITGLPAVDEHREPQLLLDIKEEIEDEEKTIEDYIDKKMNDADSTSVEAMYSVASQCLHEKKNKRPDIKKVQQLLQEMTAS
Protocol: For the routine compound screening, an IRAK4 kinase assay was performed as follows using Promega ADP-Glo IRAK4 Kinase Enzyme System (Promega, Cat #2198-AD). Purified full length human IRAK4 protein (Signal Chem; Cat #I12-10G-125) was diluted to a concentration 6 nM in assay buffer (25 mM MOPS, pH 7.2, 12.5 mM β-glycerol-phosphate, 25 mM MgCl2, 5 mM EGTA, 2 mM EDTA, 0.0025% Brij-35, add 0.25 mM DTT to Kinase Assay Buffer prior to use) containing IRAK4 inhibitor at 2× the final concentration in 0.4% DMSO. The reaction was performed in PerkinElmer Proxiplate-384 plus white plate (Fisher Scientific, Cat #50-905-2761) and started by the addition of an equal volume of the assay buffer containing 4 μM native swine myelin basic protein (MBP) and 500 μM ATP to achieve a final concentration of 3 nM enzyme, 2 μM MBP, 250 μM ATP, 1× compound, and 0.2% DMSO. The kinase reaction was allowed to run for 60 min at room temperature (25-27° C.), then 5 μL of ADP-Glo was added to the reaction in each well followed by 40 minutes-incubation at RT. To detect converted […], 10 μL Detection Buffer was added into each well and Incubate at RT in dark for 30 minutes. Finally, luminescence was read using Tecan with 1000 ms of integration time. The luminescent signal positively correlates with ADP amount and kinase activity. Data was analyzed by GraphPad Prism and IC50 was calculated using function log(inhibitor) vs. response—Variable slope (four parameters). Percentage of inhibition was calculated as below:
(§1) % inhibition=(1−(Reading(Sample)−Reading(Negative Control))/(Reading(Positive Control)−Reading(Negative Control)))×100%
The 0% inhibition value comes from the Reading of Positive Control wells having 0 nM compound. The 100% inhibition value comes from the Reading of Negative Control wells having no IRAK4 kinase.

IRAK4 = biological target: T2, IRAK4 (Homo sapiens, UniProt Q9NWZ3); assay: IRAK4 Human PBMC TNFα Cell Based Assay (AlphaLISA); settings: TNFα measured
T2 construct: host or cells: human peripheral blood mononuclear cells (PBMCs)
T2 sequence (Q9NWZ3 1-460): T1 sequence (Q9NWZ3 1-460)
Protocol: In this assay, serially diluted compounds were incubated with 1×10^4 human peripheral blood mononuclear cells (PBMCs) from STEMCELL (Cat #70025.1) per well of 384-well plate (Fisher Scientific; 50-905-2761) and cultured with TexMACS medium (Miltenyi, Cat #130-097-196), stimulated by R848 (0.5 μM) or IL-1β (10 ng/ml). Plates were covered with lids and incubated for 4 h (R848, Fisher Scientific, Cat #NC9801605) or 24 h (IL-1β, Fisher Scientific, Cat #ENRIL1BI) at 37° C. in a humidified tissue-culture incubator. After a brief centrifugation at 1000 rpm for 5 minutes, 5 μl of culture medium was used for the measurement of the TNFα amount using TNFα (human) AlphaLISA Detection Kit (PerkinElmer, Cat #AL208C) according to manufacturer's protocol. A biotinylated anti-TNFα antibody binds to the Streptavidin-coated Donor beads while another anti-TNFα antibody is conjugated to AlphaLISA Acceptor beads. In the presence of the TNFα, the beads come into close proximity. The excitation of the Donor beads causes the release of singlet oxygen molecules that triggers a cascade of energy transfer in the Acceptor beads, resulting in a sharp peak of light emission at 615 nm. AlphaLISA assay plates were read using PHERAstar. Percentage of inhibition was calculated as below:
as §1
The 0% inhibition value comes from the Reading of Positive Control wells having 0 nM compound. The 100% inhibition value comes from the Reading of Negative Control wells having no R848 or IL-1β.

CYP2D6 = biological target: T3, CYP2D6 (Homo sapiens, UniProt P10635); assay: In vitro study for inhibiting cytochrome P450 (CYP) 2D6 using human liver microsomes; assay type: in vitro ADME; settings: human liver microsomes 0.1 mg/ml, probe substrate dextromethorphan 4 μM, 30 min at 37° C.; read-out: IC50 of inhibition on CYP2D6
T3 construct: tissue Corning Co, LTD; host or cells: human liver microsomes
T3 sequence (P10635 whole entry): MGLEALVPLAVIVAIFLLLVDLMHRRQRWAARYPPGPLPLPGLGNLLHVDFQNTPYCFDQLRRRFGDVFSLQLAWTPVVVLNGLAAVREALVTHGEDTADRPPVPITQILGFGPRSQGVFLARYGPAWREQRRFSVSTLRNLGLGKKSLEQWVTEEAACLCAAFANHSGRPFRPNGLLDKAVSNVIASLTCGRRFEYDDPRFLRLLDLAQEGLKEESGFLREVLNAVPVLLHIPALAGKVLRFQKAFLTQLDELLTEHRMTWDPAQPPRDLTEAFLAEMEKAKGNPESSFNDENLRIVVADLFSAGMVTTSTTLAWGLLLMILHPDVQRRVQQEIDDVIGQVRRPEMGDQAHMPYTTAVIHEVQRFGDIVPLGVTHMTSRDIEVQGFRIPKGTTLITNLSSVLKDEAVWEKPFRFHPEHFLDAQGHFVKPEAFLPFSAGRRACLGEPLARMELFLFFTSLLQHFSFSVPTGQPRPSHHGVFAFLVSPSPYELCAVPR
Protocol: Potassium phosphate buffer ([…] from Sangon Biotech. Dilute 20×PBS to 100 mM PBS buffer. The stock solutions of NADPH was 5 mM and the final concentration in the incubation system was 1 mM. The stock solution of MgCl2 were 7.5 mM and t the final concentration in the incubation system was 3 mM.
1.1 Preparation of probe substrate solution: The stock solutions of probe substrates of dextromethorphan (Sigma Cat No. D9684) was prepared by using DMSO and the final concentration in incubation system was 4 μM.
1.2 Preparation of selective inhibitors solution: The 30 mM stock solutions of inhibitor of CYP isoforms of Quinidine (Sigma, Q0750) was prepared by using DMSO and the final concentration in incubation system were 30, 10, 3, 1, 0.3, 0.03, 0.003 μM.
1.3 Preparation of test compound 5 and 6 solution: The 30 mM test compound 5 and 6 solutions were prepared by using DMSO and the final concentration in incubation system were 30, 10, 3, 1, 0.3, 0.03, 0.003 μM.
1.4 Human liver microsomes (HLM) were purchased by Corning Co, LTD. Diluted the HLM into 0.25 mg/ml and the final concentration was 0.1 mg/ml.
Added 20 μL working solutions of test compound 5 or 6 or selective inhibitors into a 96-well plate. Then added 40 μL of the HLM working solution and 20 μL of the substrate working solution. […] Samples are now ready for LC/MS/MS analysis.

[2] = human PBMCs stimulated by IL-1β (10 ng/ml), 24 h, read-out: IRAK4 PBMC AlphaLISA IL-1β (IC50)
[3] = human PBMCs stimulated by R848 (0.5 μM), 4 h, read-out: IRAK4 PBMC AlphaLISA R848 (IC50)

IC50 [1] | IRAK4 Biochemical Assay Max Inhibition (%) [1] | IC50 (IRAK4; [2]) | IC50 (IRAK4; [3]) | IC50 (CYP2D6) | Compound
6.2 nM | 100.0% | 2.2 nM | 0.7 nM | > 30 µM | CC[C@@H]1[C@H](F)C(=O)N[C@@H]1COc1ncc(C#CCN(C)C)c2cc(C(N)=O)c(OC)cc12 [Example 5, 4-(3-(dimethylamino)prop-1-yn-1-yl)-1-(((2S,3S,4S)-3-ethyl-4-fluoro-5-oxopyrrolidin-2-yl)methoxy)-7-methoxyisoquinoline-6-carboxamide]
14.5 nM | 100.0% | 1.3 nM | 1 nM | 13.7 µM | CC[C@@H]1[C@H](F)C(=O)N[C@@H]1COc1ncc(C#CCOC)c2cc(C(N)=O)c(OC)cc12 [Example 6, 1-(((2S,3S,4S)-3-ethyl-4-fluoro-5-oxopyrrolidin-2-yl)methoxy)-7-methoxy-4-(3-methoxyprop-1-yn-1-yl)isoquinoline-6-carboxamide]
